Assay results reported in DBAASP.
Values after ≈ are worked out from the molar mass of the structure shown. Values joined by “and” are separate entries in the source; they are usually repeats but may differ in a detail not shown here. Equal values may be shown once.

Columns and labels:
Experiment in all cases: ≥ marks a high value that may be exact or a test limit, other limits are often not marked, values filed in µg/mL are converted to µM
[1] = tested on: Escherichia coli DH5alpha
[2] = tested on: Pseudomonas aeruginosa H188
Escherichia coli = tested on: Escherichia coli
[3] = tested on: Escherichia coli ATCC 25922
[4] = tested on: Pseudomonas aeruginosa ATCC 27853
[5] = tested on: Staphylococcus aureus ATCC 25923
[6] = tested on: Klebsiella pneumoniae ATCC 700603
[7] = tested on: Escherichia coli BW25113 ΔsbmA
Escherichia coli BW25113 = tested on: Escherichia coli BW25113
[8] = tested on: Acinetobacter baumannii ATCC 19606
[9] = tested on: Salmonella enterica subsp. enterica serovar Typhimurium ATCC 14028
[10] = tested on: Cronobacter sakazakii DPC 6440
[11] = tested on: Listeria monocytogenes LO28
Escherichia coli MG1655 = tested on: Escherichia coli MG1655
[12] = tested on: Pseudomonas aeruginosa PAO1
Candida albicans = tested on: Candida albicans

Row | MIC (Escherichia coli) | MIC [3] | MIC [4] | MIC [5] | MIC [6] | MIC [7] | MIC (Escherichia coli BW25113) | MIC [8] | MIC [10] | MIC [11] | Compound | also measured
1 | 0.337 µM (≈ 1.01 µg/mL) | 0.337 µM (≈ 1.01 µg/mL) | 0.675 µM (≈ 2.03 µg/mL) | – | – | – | – | – | – | – | CC[C@H](C)[C@H](NC(=O)[C@H](C)NC(=O)[C@H](CCCCN)NC(=O)[C@H](CC(C)C)NC(=O)[C@H](C)NC(=O)[C@@H](NC(=O)[C@H](Cc1cnc[nH]1)NC(=O)[C@H](CC(C)C)NC(=O)[C@H](CC(C)C)NC(=O)[C@@H](NC(=O)[C@H](CCCCN)NC(=O)[C@H](CCCCN)NC(=O)[C@H](C)NC(=O)[C@H](CO)NC(=O)[C@H](CCCCN)NC(=O)[C@H](Cc1ccccc1)NC(=O)[C@@H](NC(=O)[C@H](CCCCN)NC(=O)[C@H](CC(C)C)NC(=O)[C@H](Cc1ccccc1)NC(=O)[C@H](CO)NC(=O)[C@H](CCCCN)NC(=O)[C@H](Cc1c[nH]c2ccccc12)NC(=O)[C@H](CCCCN)NC(C)=O)[C@@H](C)O)[C@@H](C)O)[C@@H](C)O)C(=O)N[C@@H](CO)C(=O)N[C@@H](CO)C(N)=O [KWKSFLKTFKSAKKTLLHTALKAISS] | MIC [1]: 1.35 µM (≈ 4.06 µg/mL); MIC [2]: 0.675 µM (≈ 2.03 µg/mL)
2 | – | – | – | – | – | – | – | – | ≥ 625 µM | ≥ 156 µM | CC[C@H](C)[C@H](NC(=O)[C@@H](N)Cc1c[nH]c2ccccc12)C(=O)N[C@@H](CCC(N)=O)C(=O)N1CCC[C@H]1C(=O)N[C@@H](C)C(=O)N[C@H](C(=O)N[C@@H](CCCCN)C(=O)N[C@H](C(=O)N[C@H](C(=O)N1CCC[C@H]1C(=O)N[C@@H](Cc1ccc(O)cc1)C(=O)N[C@H](C(=O)N[C@@H](C)C(=O)N[C@@H](Cc1ccc(O)cc1)C(=O)N[C@@H](CC(C)C)C(=O)O)C(C)C)[C@@H](C)CC)C(C)C)[C@@H](C)O [WIQPATKVIPYVAYL] | –
3 | 5.5 µM (≈ 16.2 µg/mL) | 2.75 µM (≈ 8.11 µg/mL) | 11 µM (≈ 32.5 µg/mL) | – | – | – | – | – | – | – | CC[C@H](C)[C@H](NC(=O)[C@H](C)NC(=O)[C@H](CCCCN)NC(=O)[C@H](CC(C)C)NC(=O)[C@H](C)NC(=O)[C@@H](NC(=O)[C@H](Cc1cnc[nH]1)NC(=O)[C@H](CC(C)C)NC(=O)CNC(=O)[C@@H](NC(=O)[C@H](CCCCN)NC(=O)[C@H](CCCCN)NC(=O)[C@H](C)NC(=O)[C@H](CO)NC(=O)[C@H](CCCCN)NC(=O)[C@H](Cc1ccccc1)NC(=O)[C@@H](NC(=O)[C@H](CCCCN)NC(=O)[C@H](CC(C)C)NC(=O)[C@H](Cc1ccccc1)NC(=O)[C@H](CO)NC(=O)[C@H](CCCCN)NC(=O)[C@H](Cc1c[nH]c2ccccc12)NC(=O)[C@H](CCCCN)NC(C)=O)[C@@H](C)O)[C@@H](C)O)[C@@H](C)O)C(=O)N[C@@H](CO)C(=O)N[C@@H](CO)C(N)=O [KWKSFLKTFKSAKKTGLHTALKAISS] | MIC [1]: 2.75 µM (≈ 8.11 µg/mL); MIC [2]: 2.75 µM (≈ 8.11 µg/mL)
4 | – | – | – | – | – | – | – | – | ≥ 78.1 µM | 19.5 µM (≈ 36.6 µg/mL) | CC[C@H](C)[C@H](NC(=O)[C@@H](N)Cc1c[nH]c2ccccc12)C(=O)N[C@@H](CCC(N)=O)C(=O)N1CCC[C@H]1C(=O)N[C@@H](CCCCN)C(=O)N[C@@H](C)C(=O)N[C@@H](CCCCN)C(=O)N[C@H](C(=O)N[C@H](C(=O)N1CCC[C@H]1C(=O)N[C@@H](Cc1ccc(O)cc1)C(=O)N[C@H](C(=O)N[C@@H](CCCN=C(N)N)C(=O)N[C@@H](Cc1ccc(O)cc1)C(=O)N[C@@H](CC(C)C)C(=O)O)C(C)C)[C@@H](C)CC)C(C)C [WIQPKAKVIPYVRYL] | –

The next lines start with the compound.

Row | Compound | MIC (Escherichia coli) | MIC [3] | MIC [4] | MIC [5] | MIC [6] | MIC [7] | MIC (Escherichia coli BW25113) | MIC [8] | MIC [10] | MIC [11] | also measured
5 | CC[C@H](C)[C@H](NC(=O)[C@H](CCCN=C(N)N)NC(=O)[C@@H](N)Cc1c[nH]c2ccccc12)C(=O)N[C@@H](CCCN=C(N)N)C(=O)N1CCC[C@H]1C(=O)N[C@@H](CCCN=C(N)N)C(=O)N1CCC[C@H]1C(=O)N1CCC[C@H]1C(=O)N[C@@H](CCCN=C(N)N)C(=O)N[C@@H](CC(C)C)C(=O)N1CCC[C@H]1C(=O)N[C@@H](CCCN=C(N)N)C(=O)N[C@@H](Cc1c[nH]c2ccccc12)C(=O)N[C@@H](CCCN=C(N)N)C(=O)N1CCC[C@H]1C(=O)N[C@@H](CCCN=C(N)N)C(=O)O [WRIRPRPPRLPRWRPR] | – | 1.5 µM and 2 µM | > 64 µM | > 64 µM | 8 µM (≈ 17.6 µg/mL) | 16 µM and ≥ 32 µM | 2 µM (≈ 4.39 µg/mL) | 32 µM (≈ 70.3 µg/mL) | – | – | –
6 | CC[C@H](C)[C@H](NC(=O)[C@@H]1CCCN1C(=O)[C@@H]1CCCN1C(=O)[C@H](CCCN=C(N)N)NC(=O)[C@H](Cc1ccccc1)NC(=O)[C@@H](N)CCCN=C(N)N)C(=O)N[C@@H](CCCN=C(N)N)C(=O)N[C@@H](CCCN=C(N)N)C(=O)N1CCC[C@H]1C(=O)N1CCC[C@H]1C(=O)N[C@H](C(=O)N[C@@H](CCCN=C(N)N)C(=O)N1CCC[C@H]1C(=O)N1CCC[C@H]1C(=O)N[C@@H](Cc1ccccc1)C(=O)N[C@@H](Cc1ccc(O)cc1)C(=O)N1CCC[C@H]1C(=O)N1CCC[C@H]1C(=O)N[C@@H](Cc1ccccc1)C(=O)O)[C@@H](C)CC [RFRPPIRRPPIRPPFYPPF] | – | 12 µM (≈ 28.9 µg/mL) | > 64 µM | > 64 µM | > 64 µM | ≥ 32 µM | 8 µM (≈ 19.3 µg/mL) | 32 µM (≈ 77 µg/mL) | – | – | MIC [9]: 32 µM (≈ 77 µg/mL)
7 | CC[C@H](C)[C@H](NC(=O)[C@@H]1CCCN1C(=O)[C@@H]1CCCN1C(=O)[C@H](CCCN=C(N)N)NC(=O)[C@H](Cc1ccccc1)NC(=O)[C@@H](N)CCCN=C(N)N)C(=O)N[C@@H](CCCN=C(N)N)C(=O)N[C@@H](CCCN=C(N)N)C(=O)N1CCC[C@H]1C(=O)N1CCC[C@H]1C(=O)N[C@H](C(=O)N[C@@H](CCCN=C(N)N)C(=O)N1CCC[C@H]1C(=O)N1CCC[C@H]1C(=O)N[C@@H](Cc1ccccc1)C(=O)N[C@@H](Cc1ccc(O)cc1)C(=O)N1CCC[C@H]1C(=O)O)[C@@H](C)CC [RFRPPIRRPPIRPPFYP] | 5.66 µM (≈ 12.2 µg/mL) | 16 µM (≈ 34.6 µg/mL) | > 64 µM | > 64 µM | > 64 µM | ≥ 64 µM | 11.3 µM (≈ 24.5 µg/mL) | 64 µM (≈ 138 µg/mL) | – | – | MIC [9]: 32 µM (≈ 69.2 µg/mL)
8 | CC[C@H](C)[C@H](NC(=O)[C@@H](N)Cc1c[nH]c2ccccc12)C(=O)N[C@@H](CCC(N)=O)C(=O)N1CCC[C@H]1C(=O)N[C@@H](CCCCN)C(=O)N[C@H](C(=O)N[C@@H](CCCCN)C(=O)N[C@H](C(=O)N[C@H](C(=O)N1CCC[C@H]1C(=O)N[C@@H](Cc1ccc(O)cc1)C(=O)N[C@H](C(=O)N[C@@H](CCCN=C(N)N)C(=O)N[C@@H](Cc1ccc(O)cc1)C(=O)N[C@@H](CC(C)C)C(=O)O)C(C)C)[C@@H](C)CC)C(C)C)[C@@H](C)O [WIQPKTKVIPYVRYL] | – | – | – | – | – | – | – | – | ≥ 78.1 µM | ≥ 39.1 µM | –
9 | CC[C@H](C)[C@H](NC(=O)[C@H](CCCCN)NC(=O)CNC(=O)[C@H](CC(C)C)NC(=O)[C@H](Cc1ccccc1)NC(=O)[C@H](CCC(N)=O)NC(=O)[C@H](Cc1ccccc1)NC(=O)[C@@H](N)C(C)C)C(=O)N[C@H](C(=O)N[C@@H](Cc1cnc[nH]1)C(=O)N[C@@H](Cc1cnc[nH]1)C(=O)N[C@H](C(=O)NCC(=O)N[C@@H](CC(N)=O)C(=O)N[C@@H](Cc1ccccc1)C(=O)N[C@H](C(=O)N[C@@H](C)C(=O)NCC(=O)N[C@@H](Cc1ccccc1)C(=O)N[C@@H](CO)C(=O)N[C@@H](C)C(=O)N[C@H](C(=O)N[C@@H](Cc1ccccc1)C(N)=O)C(C)C)C(C)C)C(C)C)[C@@H](C)CC [VFQFLGKIIHHVGNFVAGFSAVF] | – | – | – | – | – | – | – | – | – | – | MIC (Escherichia coli MG1655): ≥ 128 µM
10 | CC(C)C[C@H](NC(=O)[C@@H](NC(=O)[C@H](CCC(=O)O)NC(=O)[C@@H](N)CCCN=C(N)N)C(C)C)C(=O)NCC(=O)N[C@@H](Cc1ccc(O)cc1)C(=O)N[C@@H](CCC(=O)O)C(=O)N[C@@H](CCCN=C(N)N)C(=O)N[C@@H](CC(N)=O)C(=O)N[C@@H](CO)C(=O)N[C@@H](Cc1ccc(O)cc1)C(=O)N[C@@H](CCCCN)C(N)=O [REVLGYERNSYK] | – | – | – | > 128 µM | – | – | – | – | – | – | MIC [12]: > 128 µM; MIC (Escherichia coli MG1655): ≥ 128 µM; MIC (Candida albicans): > 128 µM
